From article PMC5429796, “Engineered P450 biocatalysts show improved activity and regio-promiscuity in aromatic nitration” (Scientific Reports, 2017)

How the values were obtained:
TB14 [1] = molecular target: T1, TB14 (UniProt C9ZDC6+P14779); assay: Binding affinities of Trp analogues toward TB14 (spectral shift); conditions: for Kd: read-out: TB14 Kd, 1.5 µM enzyme, 25 mM Tris-HCl pH 8.0
T1 construct: BM3R: reductase domain of CYP102A1 (P450BM3); made in house; host or cells: E. coli BL21-GOLD (DE3), pET28b-TxtE-BM3R
Description: (§1) The ferric heme of enzymes was then saturated by bubbling carbon monoxide (Airgas) and the spectra of the saturated enzyme solutions were recorded. Sodium dithionite solution (30 μL, 0.5 M) was then added to reduce ferric ion, and reduced spectra were taken subsequently. CO reduced difference spectra of all P450s were created by […]. Data were further analyzed by Excel. […] The changes in absorbance (ΔA) were determined by subtracting the absorbance at ~420 nm from that at ~390 nm. Data were then fitted to the equation of ΔA = ΔAmax[L]/(Kd + [L]) using GraphPad Prism 4.
(§2) in 25 mM Tris-HCl, pH 8.0. All experiments were repeated at least three times. […]

TB14 [2] = molecular target: T1, TB14; assay: Nitration of Trp analogues by TB14 (HPLC, 45 min); assay type: biochemical; conditions: for nitrated a significant amount by TB14: after 45 mins, 0.5 mM substrate, 1.5 µM P450
Description: (§3) The reactions were prepared as described previously and incubated at 20 °C, 300 rpm for 45 minutes. All experiments were repeated at least three times.
(§4) After centrifugation, 10 μl solutions were analyzed by HPLC. […] All reactions were independently repeated at least three times. In TTN and coupling efficiency studies, 0.5 µM P450s and 0.5 mM substrate were used. […] All experiments were performed at least in triplication.

TxtE [3] = molecular target: T2, TxtE (Streptomyces scabiei, UniProt C9ZDC6); assay: biochemical; assay type: binding, Streptomyces scabies; parameters: made in house; host or cells: E. coli BL21-GOLD (DE3), pET28b
Description: as §1
(§5) in 25 mM Tris-HCl, pH 8.0. All experiments were repeated at least three times. Data
(§6) were fitted to the Michaelis-Menten equation.

TxtE [4] = molecular target: T3, TxtE (Streptomyces scabiei, UniProt C9ZDC6); assay: UV-Vis difference spectroscopy (Type I shift) titration of Trp analogues to 1.5 µM purified P450 in 25 mM Tris-HCl, pH 8.0, fitted to Michaelis-Menten type equation; at least three repeats.; assay type: binding; conditions: n = 3
T3 construct: wild type, pET28b construct, Ni-NTA purified
T3 sequence (C9ZDC6 1-406): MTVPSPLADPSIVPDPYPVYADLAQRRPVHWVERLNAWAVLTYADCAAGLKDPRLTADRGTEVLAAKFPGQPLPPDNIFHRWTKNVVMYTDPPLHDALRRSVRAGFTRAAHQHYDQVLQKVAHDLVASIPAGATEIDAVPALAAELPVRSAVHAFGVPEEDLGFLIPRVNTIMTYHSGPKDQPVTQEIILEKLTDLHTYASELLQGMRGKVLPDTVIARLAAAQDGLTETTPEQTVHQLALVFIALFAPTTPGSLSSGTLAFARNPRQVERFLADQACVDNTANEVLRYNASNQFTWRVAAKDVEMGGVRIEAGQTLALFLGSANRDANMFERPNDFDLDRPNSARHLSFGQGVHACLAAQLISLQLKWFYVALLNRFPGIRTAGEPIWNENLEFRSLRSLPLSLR
Description: as §1, §5, §6

TB14 [5] = molecular target: T1, TB14; assay: Scaled-up TB14 nitration of 4-Me-DL-Trp (Marfey's derivatization, NMR); assay type: biochemical; conditions: scaled-up reaction with 4-Me-DL-Trp
Description: The reactions in a 200-ml flask were incubated at 20 °C, 250 rpm overnight, and then terminated by 20 mL methanol or acidification to pH 1.0 with 6 M HCl. After centrifugation, the supernatants were concentrated in vacuo and then freeze-dried. The products were redissolved in 3 ml methanol for semi-preparation[22].
4-Me-Trp and nitrated 4-Me-Trp from enzyme reactions were reacted with Marfey’s reagent following manufacture manual (Thermo Scientific). Derivatized products were analyzed by LC-MS with A SHIMADZU Prominence UPLC system fitted with a Waters SymmetryShieldTM RP-C18 column (3.5 µm, 4.6 × 100 mm) and a Linear Ion Trap Quadrupole LC/MS/MS Mass Spectrometer system. The flow rate was 0.5 mL/min. The column was eluted with 90% solvent A (0.05 M triethylammonium acetate, pH 3.0), 10% solvent B (acetonitrile) for 2 min and then with a linear gradient of 10–50% solvent B for 60 min. The column was then cleaned by 50% solvent B for 5 min followed by a re-equilibration with 10% solvent B for 2 min. For MS detection, the turbo spray conditions used were: curtain gas: 30 psi; ion spray voltage: 5000 V; temperature: 550 °C; ion source gas 1: 30 psi; ion source gas 2: 20 psi.

TB14 [6] = molecular target: T4, TB14 (UniProt C9ZDC6); assay: Binding affinities of Trp analogues toward TB14 (spectral shift); conditions: 1.5 µM enzyme, 25 mM Tris-HCl pH 8.0
T4 construct: BM3R: reductase domain of CYP102A1 (P450BM3); made in house; host or cells: E. coli BL21-GOLD (DE3), pET28b-TxtE-BM3R
Description: as §1, §2

TxtE [7] = molecular target: T2, TxtE; assay type: biochemical, Streptomyces scabies; parameters: made in house; conditions: for nitrated a significant amount by TxtE: after 45 mins, 0.5 mM substrate, 1.5 µM P450
Description: as §3, §4

TB11 = assay: UV-Vis difference spectroscopy (Type I shift, ΔA ~390 minus ~420 nm) titration of Trp to 1.5 µM purified P450 in 25 mM Tris-HCl, pH 8.0, hyperbolic fit; at least three repeats.; assay type: binding; conditions: n = 3
Description: (§7) We next determined coupling efficiency to evaluate the extent to which linker length and structural swapping may affect electron transfer compatibility during nitration reaction (Table 1). […] Additionally, we determined total turnover number (TTN) as nmol product per nmol P450 in all reactions (Table 1).
as §1

TB12 = assay: as above; assay type: binding; conditions: n = 3
Description: as §7, §1

TB13-Q = assay: as above; assay type: binding; conditions: n = 3
Description: as §7, §1

TB13S = assay: as above; assay type: binding; conditions: n = 3
Description: as §7, §1

TB13 = assay: as above; assay type: binding; conditions: n = 3
Description: as §7, §1

TB15 = assay: as above; assay type: binding; conditions: n = 3
Description: as §7, §1

TB16 = assay: as above; assay type: binding; conditions: n = 3
Description: as §7, §1

TB17 = assay: as above; assay type: binding; conditions: n = 3
Description: as §7, §1

TB19 = assay: as above; assay type: binding; conditions: n = 3
Description: as §7, §1

TB22 = assay: as above; assay type: binding; conditions: n = 3
Description: as §7, §1

TB24 = assay: as above; assay type: binding; conditions: n = 3
Description: as §7, §1

TB27 = assay: as above; assay type: binding; conditions: n = 3
Description: as §7, §1

[8] = read-out: TxtE Kd (µM), TB14 Kd

CC(N)(Cc1c[nH]c2ccccc12)C(=O)O (stereo not drawn) [α-Me-Trp]
Kd (TB14 [1]): 95 ± 9 µM | nitrated a significant amount by TB14 (TB14 [2]): not | Kd (TxtE [3]; read-out: TxtE Kd, 1.5 µM enzyme, 25 mM Tris-HCl pH 8.0): 100 ± 4 µM

NC(Cc1c[nH]c2cc(F)ccc12)C(=O)O (racemic) [6-F-Trp, 6-fluoro-DL-tryptophan]
Kd (TxtE [4]): 73 µM

Cc1cccc2[nH]cc(CC(N)C(=O)O)c12 (racemic) [4-Me-Trp, 4-methyl-DL-tryptophan]
Kd (TxtE [4]): 10 µM

Cc1ccc2[nH]cc(CC(N)C(=O)O)c2c1 (racemic) [5-Me-Trp, 5-methyl-DL-tryptophan]
Kd (TxtE [4]; [8]): 35 µM

NC(Cc1c[nH]c2cccc(F)c12)C(=O)O (racemic) [4-F-Trp, 4-fluoro-DL-tryptophan]
Kd (TxtE [4]): 190 µM

Cc1cccc2[nH]cc(C[C@H](N)C(=O)O)c12 [4-Me-L-Trp]
consumption of substrate in the TB14 reaction (TB14 [5]): ~ 85%

N[C@@H](Cc1c[nH]c2ccccc12)C(=O)O [L-Trp, L-tryptophan]
Kd (TB14 [6]): 17 ± 1 µM | Kd (TxtE [3]): 25 ± 1 µM

NCCc1c[nH]c2ccccc12 [Tryptamine]
Kd (TB14 [6]): 60 ± 8 µM | Kd (TxtE [3]): 68 ± 6 µM

N[C@@H](Cc1c[nH]c2ccc(O)cc12)C(=O)O [5-OH-L-Trp, 5-hydroxy-L-tryptophan]
Kd (TxtE [4]; [8]): 340 µM

N[C@H](Cc1c[nH]c2ccccc12)C(=O)O [D-Trp, D-tryptophan]
Kd (TxtE [4]; [8]): 430 µM

N[C@@H](Cc1c[nH]c2ncccc12)C(=O)O [7-Azatryptophan]
Kd (TB14 [6]): 26 ± 1 µM | Kd (TxtE [3]): 17 ± 1 µM

COc1ccc2[nH]cc(CC(N)C(=O)O)c2c1 (centres unmarked) [5-MeO-Trp]
Kd (TB14 [1]): 26 ± 2 µM | nitrated a significant amount by TB14 (TB14 [2]): not

O=C(O)C(=O)Cc1c[nH]c2ccccc12 [Indole-3-pyruvic acid]
Kd (TB14 [6]): 480 ± 32 µM | Kd (TxtE [3]): 390 ± 43 µM

O=C(O)C1Cc2c([nH]c3ccccc23)CN1 (stereo not drawn) [2,3,4,9-Tetrahydro-1H-β-carboline-3-carboxynate]
Kd (TB14 [1]): 730 ± 86 µM

N[C@@H](Cc1c[nH]c2ccc(F)cc12)C(=O)O [5-F-L-Trp, 5-fluoro-L-tryptophan]
Kd (TxtE [4]): 84 µM

c1ccc2[nH]ccc2c1 [indole]
interaction with TB14 in spectroscopic analysis (Type I spectral shift) (TB14 [1]): no detectable level of interaction | interaction with TxtE in spectroscopic analysis (TxtE [3]): no detectable level of interaction

N[C@@H](Cc1c[nH]c2ccc(F)cc12)C(=O)O [5-F-L-Trp]
Kd (TB14 [1]): 78 ± 6 µM | substrate ranking in the TB14 reaction (TB14 [2]; 45 min): comparable to Trp as the best | nitrated a significant amount by TB14 (TB14 [2]): nitrated a significant amount | substrate ranking in the TxtE reaction (TxtE [7]; 45 min): best substrate of TxtE | nitrated a significant amount by TxtE (TxtE [7]): nitrated a significant amount

N[C@H](Cc1c[nH]c2ccccc12)C(=O)O [D-Trp]
Kd (TB14 [1]): 470 ± 25 µM

N[C@@H](Cc1c[nH]c2cc(F)ccc12)C(=O)O [6-F-Trp]
Kd (TB14 [1]): 65 ± 5 µM | nitrated a significant amount by TB14 (TB14 [2]): nitrated a significant amount | nitrated a significant amount by TxtE (TxtE [7]): nitrated a significant amount

COc1ccc2[nH]cc(CC(N)C(=O)O)c2c1 (racemic) [5-MeO-Trp, 5-methoxy-DL-tryptophan]
Kd (TxtE [4]; [8]): 29 µM

N[C@H](CO)Cc1c[nH]c2ccccc12 [L-tryptophanol]
Kd (TB14 [1]): 280 ± 43 µM | Kd (TxtE [4]; [8]): 220 µM

N[C@@H](Cc1c[nH]c2ccc(O)cc12)C(=O)O [5-OH-L-Trp]
Kd (TB14 [1]): 450 ± 16 µM

NC(Cc1c[nH]c2cccc(F)c12)C(=O)O (centres unmarked) [4-F-Trp]
Kd (TB14 [1]): 180 ± 13 µM | nitrated a significant amount by TB14 (TB14 [2]): not

Cc1cccc2[nH]cc(CC(N)C(=O)O)c12 (racemic) [4-Me-Trp, 4-Me-DL-Tryptophan]
binding affinity, times higher than 4-F-DL-Trp (TB14 [1]; from Table S1): 13 times | Kd (TB14 [1]): 14 ± 1 µM | nitration by TB14, times favoured over 4-F-DL-Trp (TB14 [2]; 45 min, Fig. 3): about 8 times | nitrated a significant amount by TB14 (TB14 [2]): nitrated a significant amount | nitrated a significant amount by TxtE (TxtE [7]): nitrated a significant amount

NCCc1c[nH]c2ccc(O)cc12 [Serotonin]
Kd (TB14 [6]): 310 ± 39 µM | Kd (TxtE [3]): 320 ± 31 µM

Cc1cccc2c(CC(N)C(=O)O)c[nH]c12 (centres unmarked) [7-Me-Trp]
Kd (TB14 [1]): 11 ± 1 µM | nitrated a significant amount by TB14 (TB14 [2]): not

N[C@@H](Cc1c[nH]c2ccccc12)C(=O)O [Trp, L-tryptophan]
Kd (TB11): 16.2 ± 0.6 µM | Kd (TB12): 22.3 ± 1.4 µM | Kd (TB13-Q): 21.5 ± 0.8 µM | Kd (TB13S): 19.3 ± 0.6 µM | Kd (TB13): 21.3 ± 0.4 µM | Kd (TB15): 21.4 ± 0.9 µM | Kd (TB16): 18.9 ± 1 µM | Kd (TB17): 15.5 ± 0.6 µM | Kd (TB19): 16 ± 0.8 µM | Kd (TB22): 27.1 ± 1.3 µM | Kd (TB24): 14.9 ± 0.3 µM | Kd (TB27): 16.2 ± 1.1 µM

Cc1cccc2c(CC(N)C(=O)O)c[nH]c12 (racemic) [7-Me-Trp, 7-methyl-DL-tryptophan]
Kd (TxtE [4]; [8]): 13 µM

O=C(O)C1Cc2c([nH]c3ccccc23)CN1 (stereo not drawn) [2,3,4,9-tetrahydro-1H-β-carboline-3-carboxylate]
Kd (TxtE [4]; [8]): 580 µM

Cc1ccc2[nH]cc(CC(N)C(=O)O)c2c1 (centres unmarked) [5-Me-Trp]
Kd (TB14 [1]): 30 ± 1 µM | nitrated a significant amount by TB14 (TB14 [2]): nitrated a significant amount | nitrated a significant amount by TxtE (TxtE [7]): nitrated a significant amount
